Reference: US11123332B2 (priority 2018, dated 2021)
Entries after “also recorded” stand apart in the source; their conditions may differ. Where two headings read alike, the source gives them in different places.

What was measured:
mouse = assay: forced swim test; assay type: in vivo; settings: for time spent in floating (immobility) during a 6 min forced swim: compared to control vehicle-treated group, FIG. 5; for time spent floating in forced swim: single dose 10 mg/kg, vs vehicle
Experimental: The forced swim test is a frequently used behavioral protocol with a well-established therapeutic predictability for a broad range of antidepressants including ketamine (Porsolt et al. 1977; Cryan and Mombereau 2004; Cryan et al. 2005; Lucki et al. 2001). In this test the mouse is put in a beaker filled with water and the time spent struggling, swimming and floating is measured, with the time spent floating when the mouse stops struggling to swim—being used as a behavioral correlate of depression.

[1] = tested on: patients with severe major depressive disorder; settings: daily oral gaboxadol 5 mg or 10 mg with escitalopram 20 mg, 490 patients; cited from earlier work
[2] = tested on: mouse brain (c-fos expression)
Description: A unique and novel approach to preclinical testing of psychiatric drugs is based on the proposition that a direct readout of drug-evoked brain activation or inhibition in an animal is the most relevant preclinical assay, because psychiatric drugs exert their effects via activation or inhibition of specific neural circuits and cell types in the brain. […] The method called “pharmacomapping” (implemented by Certerra, Inc. Farmingdale, N.Y.) is based on a largely automated drug-screening platform that comprises whole-brain detection of drug-evoked neuronal activation represented by drug-evoked expression of the immediate early gene (IEG) c-fos (Herrera and Robertson 1996). Until now, the detection of c-fos as a marker of brain activation has been done by laborious methods of in situ hybridization or immunohistochemistry in brain tissue sections, followed by mounting the sections on microscopic slides, manual imaging, and largely visual quantification. Nevertheless, over the last two decades a number of studies used these methods to test drug-evoked activity in the mouse or rat brain for various psychoactive medications, including antipsychotics, antidepressants, stimulants and anxiolytics (Engber et al., 1998; Kiss, 2018; Salminen et al., 1996; SEMBA et al., 1996; Slattery et al., 2005; Sumner et al., 2004).
In contrast to the older methods, the pharmacomapping method uses automated and standardized whole-brain immunostaining and brain clearing together with advanced microscopy (light-sheet fluorescence microscopy, LSFM), computational (e.g. machine learning) and statistical methods (FIG. 1). The first generation of this platform used serial two-photon tomography (STPT) as a method for imaging and c-fos-GFP mice expressing green fluorescent protein (GFP) under the control of the c-fos promoter (US 20140297199A1).

[3] = cited from earlier work; for Apparent t1/2: harmonic mean N = 10; for Tmax: median N = 10
[4] = tested on: combined delta, theta and alpha activity; settings: 160 minutes after the first treatment; Nutt et al (2015); cited from earlier work
insomnia = settings: three-month efficacy study; cited from earlier work
[5] = acute single dose 10 mg/kg, 10 mg/kg
[6] = 10 mg I.V., geometric mean N = 10
[7] = 10 mg Oral, geometric mean N = 10

Oc1noc2c1CCNC2 [gaboxadol, 4,5,6,7-tetrahydroisoxazolo (5,4-c) pyridin-3-ol]
time spent in floating (immobility) during a 6 min forced swim (mouse): significantly reduced | time spent floating in forced swim (mouse; 1 hour after drug delivery): nearly identical behavioral effect as the ketamine group | time spent floating in forced swim (mouse; 24 hours after drug delivery): nearly identical behavioral effect as the ketamine group | additional benefit in treatment of severe major depressive disorder [1]: no additional benefit | drug-evoked brain activation (pharmacomap) ([2]; 3 mg/kg alone): neither gaboxadol at 3 mg/kg nor ketamine at 6 mg/kg alone evoked any brain activation detectable | drug-evoked brain activation (pharmacomap) [2, 5]: very similar brain activation as ketamine | drug-evoked brain activation (pharmacomap) ([2]; acute single dose 10 mg/kg, listed as Gaboxadol, 10 mg/kg): broad brain activation that is highly similar to that of ketamine | fe ([3]; 2.5 mg single oral dose, geometric mean N = 10): 43% | AUC0-∞ ([3]; 2.5 mg single oral dose, geometric mean N = 10, potency adjusted): 90 ng·h/mL | Apparent t1/2 ([3]; 2.5 mg single oral dose): 1.5 h | Tmax ([3]; 2.5 mg single oral dose): 30 min | fe ([3]; 5 mg single oral dose, geometric mean N = 10): 45% | Apparent t1/2 ([3]; 5 mg single oral dose): 1.5 h | Tmax ([3]; 5 mg single oral dose): 36 min | AUC0-∞ [3, 6]: 380 ng·h/mL | fe [3, 6]: 53% | Apparent t1/2 ([3]; 10 mg I.V.): 1.5 h | CLR [3, 7]: 250 mL/min | fe [3, 7]: 53% | Apparent t1/2 ([3]; 10 mg Oral): 1.6 h | Tmax ([3]; 10 mg Oral): 30 min | fe ([3]; 15 mg single oral dose, geometric mean N = 10): 50% | Apparent t1/2 ([3]; 15 mg single oral dose): 1.5 h | Tmax ([3]; 15 mg single oral dose): 30 min | fe ([3]; 20 mg single oral dose, geometric mean N = 10): 53% | Apparent t1/2 ([3]; 20 mg single oral dose): 1.6 h | Tmax ([3]; 20 mg single oral dose): 36 min | dose proportionality of plasma AUC0-∞ and Cmax ([3]; dose range 2.5 to 20 mg oral): dose proportional increases | half-life (t1/2) ([3]; independent of dose across 2.5 to 20 mg oral): 1.5 h | whole head MEG planar gradiometer increase in combined delta, theta and alpha activity [4]: ≥ +3 | effects in sleep onset and sleep maintenance (insomnia): failed to show significant effects

CNC1(c2ccccc2Cl)CCCCC1=O (centres unmarked) [ketamine]
time spent in floating (immobility) during a 6 min forced swim (mouse): significantly reduced | time spent floating in forced swim (mouse; 1 hour after drug delivery): significantly decreases | time spent floating in forced swim (mouse; 24 hours after drug delivery): significantly decreases | drug-evoked brain activation (pharmacomap) ([2]; 6 mg/kg alone): neither gaboxadol at 3 mg/kg nor ketamine at 6 mg/kg alone evoked any brain activation detectable | drug-evoked brain activation (pharmacomap) ([2]; acute single dose 5 mg/kg): modest activation | drug-evoked brain activation (pharmacomap) [2, 5]: very robust and broad activation; also recorded: very broad activation pattern | drug-evoked brain activation (pharmacomap) ([2]; acute single dose 100 mg/kg): modest activation
